Drawing on patent US20230257480A1, “ENHANCING BLOOD-BRAIN BARRIER DRUG TRANSPORT BY TARGETING ENDOGENOUS REGULATORS” (THE BOARD OF TRUSTEES OF THE LELAND STANFORD JUNIOR …, priority 2019, published 2023), this text covers vascular morphology and paracellular tight junctions for one compound.

In series [1] the test system is cerebrovascular morphology. Briefly: Cerebrovascular morphology by CD31 staining after ALPL inhibitor treatment. Type of series: in vivo. The conditions noted are these: aged (22 m.o.) mice, vs vehicle. The text has this: FIGS. 14A-14D are graphs illustrating flow cytometry quantification of brain endothelial cell uptake of plasma from young mice (3 m.o.) (FIG. 14A), plasma from aged mice (22 m.o.) (FIG. 14B), human holo-transferrin (hu-Tf) from aged mice (FIG. 14C), or transferrin receptor antibody (TfR Ab) from aged mice (FIG. 14D) treated with vehicle (grey) or anti-ALPL (green) via IP injections twice daily for three days, as assessed by % of BECs that are tracer^+ and relative MFI of tracer^+ BECs (for plasma, n=4; for hu-Tf, n=6 vehicle, n=5 anti-ALPL; for TfR Ab, n=9, two-sided t-test, mean+/−s.e.m.). Tracer refers to plasma, hu-Tf, or TfR Ab. FIG. 14E includes representative images of hu-Tf^+ neurons detected in the cortex of mice treated with ALPL inhibitor. Scale bar=40 microns. […] FIG. 14H includes graphs illustrating flow cytometry quantification of brain endothelial cell and brain parenchymal cell uptake of 3 kDa dextran tracer, which probes for disruptions in paracellular permeability, in young mice (3 m.o.) and aged mice (22 m.o.) (n=6 vehicle, n=5 anti-ALPL, two-sided t-test, mean+/−s.e.m.).
Brain tissue processing, immunohistochemistry, and immunofluorescence experiments were performed as described previously12,13. […] National Institutes of Health ImageJ software was used to quantify the percentage of vasculature (CD31 or AQP4) covered by CD13, AQP4, or ALPL, as described previously63. […]

Series [2] deals with paracellular tight junctions. Briefly: 3 kDa dextran tracer uptake probing paracellular permeability after ALPL inhibitor treatment. The following applies: young and aged mice, vs vehicle. It counts as in vivo. The text has this:
FIGS. 14A-14D are graphs illustrating flow cytometry quantification of brain endothelial cell uptake of plasma from young mice (3 m.o.) (FIG. 14A), plasma from aged mice (22 m.o.) (FIG. 14B), human holo-transferrin (hu-Tf) from aged mice (FIG. 14C), or transferrin receptor antibody (TfR Ab) from aged mice (FIG. 14D) treated with vehicle (grey) or anti-ALPL (green) via IP injections twice daily for three days, as assessed by % of BECs that are tracer^+ and relative MFI of tracer^+ BECs (for plasma, n=4; for hu-Tf, n=6 vehicle, n=5 anti-ALPL; for TfR Ab, n=9, two-sided t-test, mean+/−s.e.m.). Tracer refers to plasma, hu-Tf, or TfR Ab. FIG. 14E includes representative images of hu-Tf^+ neurons detected in the cortex of mice treated with ALPL inhibitor. Scale bar=40 microns. FIG. 14F includes graphs showing circulating human holo-transferrin and transferrin receptor antibody in blood plasma upon time of sacrifice to control for and ensure no differences in injected amount (for hu-Tf+, n=6 vehicle, n=5 anti-ALPL; for TfR Ab, n=9, two-sided t-test, mean+/−s.e.m.). […] FIG. 14H includes graphs illustrating flow cytometry quantification of brain endothelial cell and brain parenchymal cell uptake of 3 kDa dextran tracer, which probes for disruptions in paracellular permeability, in young mice (3 m.o.) and aged mice (22 m.o.) (n=6 vehicle, n=5 anti-ALPL, two-sided t-test, mean+/−s.e.m.). […]

As to `COc1ccc(OC)c(S(=O)(=O)Nc2cnc3ccccc3c2)c1` [ALPL inhibitor, 2,5-Dimethoxy-N-(quinolin-3-yl)benzenesulfonamide], in series [1], the vascular morphology entry is “did not perturb”. In series [2], the paracellular tight junctions result is given as “did not perturb vascular morphology or compromise”.
